In publication PMC6934184, “Selective DNA-PKcs inhibition extends the therapeutic index of localized radiotherapy and chemotherapy” (The Journal of Clinical Investigation, 2019):

Molecular target: T1, PRKG2 (PKG2) (Homo sapiens, UniProt Q13237)
T1 construct: purchased Thermo Fisher Scientific (Life Technologies) SelectScreen
Experiment: SelectScreen Z'LYTE
Type: biochemical
How it was run: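 NU5455 was profiled across the SelectScreen Broad panel of kinase activity and binding assays. Z'LYTE reactions such as CSF1R ran at apparent Km ATP, while the Adapta CAMK1 assay used ATP listed as 10. Values are given as percent.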

T1 sequence (Q13237 whole entry): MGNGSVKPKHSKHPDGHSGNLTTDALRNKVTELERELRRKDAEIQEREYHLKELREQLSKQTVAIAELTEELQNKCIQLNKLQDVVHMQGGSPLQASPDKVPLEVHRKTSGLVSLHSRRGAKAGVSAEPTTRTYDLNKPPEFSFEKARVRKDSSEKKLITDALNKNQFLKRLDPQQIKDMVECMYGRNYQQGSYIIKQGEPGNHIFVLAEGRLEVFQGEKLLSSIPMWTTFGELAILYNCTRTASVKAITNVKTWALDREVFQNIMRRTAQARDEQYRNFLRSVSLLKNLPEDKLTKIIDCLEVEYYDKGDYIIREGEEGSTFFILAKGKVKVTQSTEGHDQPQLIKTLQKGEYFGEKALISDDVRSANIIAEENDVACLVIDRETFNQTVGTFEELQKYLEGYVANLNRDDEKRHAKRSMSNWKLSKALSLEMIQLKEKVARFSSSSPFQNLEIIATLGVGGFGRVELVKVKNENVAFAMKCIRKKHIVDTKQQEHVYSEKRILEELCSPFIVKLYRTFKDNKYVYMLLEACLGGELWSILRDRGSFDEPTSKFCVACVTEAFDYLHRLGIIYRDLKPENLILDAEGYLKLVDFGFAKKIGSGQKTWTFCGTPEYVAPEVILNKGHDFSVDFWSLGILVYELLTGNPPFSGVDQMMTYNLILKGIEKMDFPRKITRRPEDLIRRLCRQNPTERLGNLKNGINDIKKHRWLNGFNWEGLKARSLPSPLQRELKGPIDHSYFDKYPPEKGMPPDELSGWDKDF

`CN(C(=O)CN1CCOCC1)c1ccc2sc3c(-c4cccc5c(=O)cc(N6CC7CCC(C6)O7)oc45)cccc3c2c1` [NU5455] showed an inhibition at 1 µM of -5.1%.
